{"source": "patent US12258377B2", "about": "(Scancell Limited, priority 2012, dated 2025)", "key": {"splenocytes [1]": {"test_system": "splenocytes", "experiment": "Ex vivo elispot assay on splenocytes of immunised HLA-DR4 transgenic mice", "type": "in vivo", "conditions": "25 μg peptide with CpG and MPLA day 0, peptide 5 μM", "experimental": "(§1) C57BL/6 mice (Charles River, UK), HLA-DR4 mice (Taconic, USA), HHDII mice (Pasteur institute, France) and HHDII/DRI mice (Pasteur institute, France) were used, aged between 8 and 12 weeks, and cared for by the staff at Nottingham Trent University. All work was carried out under a Home Office project license. Peptides were dissolved in 10% Dimethylformamide to 1 mg/ml and then emulsified (a series of dilutions) with different adjuvants: CpG and MPLA 6 μg/mouse of each (Invivogen, UK), Incomplete Freund's […] (Sigma, UK), and GMCSF 10 μg/mouse (Peprotech, UK). Peptides (25 μg/mouse) were injected subcutaneously at the base of the tail. DNA (1 μg/mouse) was coated onto 1.0 μm gold particles (BioRad, Hemel Hempstead, UK) using the manufacturer's instructions and administered intradermally by genegun (BioRad). Homspera (10 nM/mouse) (PeptideSynthetics, UK) was injected intradermally with genegun immunisation. Mice were immunized at either day 0 for peptide immunisation or days, 0, 7, and 14 for peptide and genegun immunisation. Spleens were removed for analysis at day 14 for peptide and day 20 for peptide or genegun immunisation unless stated otherwise. 400 μg Anti-CD25 antibody (PC61) was administered i.p. in saline 3 days prior to the immunisation. 200 μg Anti-CTLA-4 antibody (UC 10-4F, 10-11) was administered i.p. in saline at day 7 and 14 with either genegun or peptide immunisation.\n(§2) Elispot assays were performed using murine IFNγ, IL-17 and IL-10 capture and detection reagents according to the manufacturer's instructions (Mabtech, Sweden). In brief, anti-IFNγ, IL-17 and IL-10 antibodies were coated onto wells of 96-well Immobilin-P plate. Synthetic peptides (at a variety of concentrations) and 5×10^5 per well splenocytes were added to the wells of the plate in triplicate. Tumour target cells were added where relevant at 5×10^4/well in triplicate and plates incubated for 40 hrs at 37° C. After incubation, captured IFNγ, […], IL-17 and IL-10 were detected by biotinylated anti-IFNγ, IL-17 and IL-10 antibodies and developed with a strepatavidin alkaline phosphatase and chromogenic substrate. Spots were analysed and counted using an automated plate reader (Cellular Technologies Ltd). Functional avidity was calculated as the concentration mediating 50% maximal effector function using a graph of effector function versus peptide concentration."}, "[2]": {"test_system": "T2 or B16HHD tumour cells", "experiment": "51Cr-release assay, vim 65 cit CTL lines against HLA-A2 positive target cells", "type": "cell-based", "conditions": "peptide pulsed HLA-A2 positive target cells", "experimental": "Target cells were labelled for 1 hr with 1.85 MBq sodium (^51Cr) chromate (Amersham, Essex, UK) with or without 10 μg/ml peptide. Post incubation they were washed 3 times in RPMI. Targets 5×10^3/well of a 96-well V-bottomed plates were set up and co incubated with different densities of effector cells in a final volume of 200 μl of RPMI, 10% FCS (Sigma), 20 mM HEPES buffer, 2 mM L-glutamine, 100 units/ml penicillin and 100 μg/ml streptomycin. After 20 hrs at 37° C., 50 μl of supernatants were removed from each well and transferred to a Lumaplate (Packard, Rigaweg, the Netherlands). Plates were read on a Topcount Microplate Scintillation Counter (Packard). Percentage specific lysis was calculated using the following formula: specific lysis=100×[(experimental release−spontaneous release)/(maximum release−spontaneous release)]."}, "PBMC": {"test_system": "PBMC", "experiment": "Proliferation assay of PBMC from cancer patients", "type": "cell-based, human", "conditions": "PBMC stimulated with 10 μg/ml peptide for 4, 7 and 11 days, 3H-thymidine", "experimental": "PBMC were isolated from freshly drawn heparinised blood by Ficol-Hypaque (Sigma) gradient centrifugation. PBMC (1.5×10^6 cells/well) were stimulated with single peptides (final concentration 10 μg/ml) in RPMI containing 5% pooled autologous human serum, 2 mM glutamine, 20 mM HEPES and Penicillin-streptomycin (1%) in a final volume of 2 ml. Stimulation with purified protein derivative, PPD (final concentration 10 μg/ml) served as a positive control for the proliferative capacity of PBMC. As a negative control PBMC were incubated with medium alone. The PBMC were cultured at 37° C. in an atmosphere of 5% CO2 for 4, 7 and 11 days. To assess proliferation at these times points 100 μl in triplicate from each culture was aliquoted into a round bottom well of a 96 well plate and ^3H-thymidine added (0.0185 MBq/well) and incubated at 37° C. for a further 8 hours. The cultures were harvested onto unifilter plates and incorporation of ^3H-thymidine was determined by β-scintillation counting. The results were assessed by calculating the stimulation index (SI) as the ratio of the mean of counts per minute (cpm) of epitope-stimulated to the mean of unstimulated cultures. The proliferative assay was considered positive when SI >2.5."}, "splenocytes [3]": {"test_system": "splenocytes", "experiment": "Ex vivo elispot assay on splenocytes of immunised HLA-DR1 / HLA-A2/DR1 (HHDII/DR1) transgenic mice", "type": "in vivo", "conditions": "HLA-A2/DR1 mice", "experimental": "as §1, §2"}, "splenocytes [4]": {"test_system": "splenocytes", "experiment": "Ex vivo elispot assay on splenocytes of immunised HLA-DR1 / HLA-A2/DR1 (HHDII/DR1) transgenic mice", "type": "in vivo", "conditions": "stimulation with citrullinated peptide; HLA-A2/DR1 mice"}, "EL4 HHD cells": {"test_system": "EL4 HHD cells", "experiment": "IFNg elispot of splenocytes against EL4 HHD tumour target cells", "type": "cell-based, HLA-A2/DR1 transgenic mice", "conditions": "EL4 HHD over HLA mismatched B16 cells", "experimental": "as §2"}, "[5]": {"conditions": "25 μg citrullinated peptide day 0, day 14"}}, "note": "Ends that are not written are not given here.", "data": [{"sequence": "SAVRLRSSVPGVR [citrullinated vim 65 peptide] (not fully specified; also: citrullinated, positions not given here)", "values": [{"measurement": "IL-17 elispot response to citrullinated peptide, mean", "setting": "splenocytes [1]; day 14", "result": "550 /million splenocytes"}, {"measurement": "IL-17 elispot response to wild type peptide, mean", "setting": "splenocytes [1]; day 14", "result": "no responses"}, {"measurement": "IFNγ elispot response to citrullinated peptide, mean", "setting": "splenocytes [1]; day 14 splenocytes", "result": "550 /million splenocytes"}, {"measurement": "IFNγ elispot response to wild type peptide, mean", "setting": "splenocytes [1]; day 14 splenocytes", "result": "no responses"}, {"measurement": "cytotoxicity (chromium release)", "setting": "[2]", "result": "cytotoxicity of peptide pulsed HLA-A2 positive target cells"}, {"measurement": "patients showing a proliferative response (SI >2.5)", "setting": "PBMC; listed as citrullinated vim 65-77", "result": "4/9"}, {"measurement": "patients showing a proliferative response (SI >2.5)", "setting": "PBMC; listed as vim 65 cit", "result": "three of eight"}, {"measurement": "IFNγ elispot response to citrullinated peptide", "setting": "splenocytes [3]; [5]", "result": "high frequency IFNγ responses"}, {"measurement": "IFNγ elispot response to wild type peptide", "setting": "splenocytes [3]; [5]", "result": "some cross reactivity to the wild type peptide"}, {"measurement": "IL-10 elispot response to citrullinated peptide", "setting": "splenocytes [3]; [5]", "result": "Low frequency IL-10 responses"}, {"measurement": "IFNγ response with blockade of MHC class II", "setting": "splenocytes [3]; L243 HLA-DR blocking antibody", "result": "does not eliminate the citrullinated peptide specific response"}, {"measurement": "phenotype of cells producing IFNγ and TNFa (intracellular cytokine staining)", "setting": "splenocytes [4]", "result": "CD8 positive"}, {"measurement": "recognition of tumour target cells ex vivo", "setting": "EL4 HHD cells", "result": "good recognition of transgenic HLA-A2 engineered EL4 cell line (EL4 HHD)"}]}]}
